One assay concerns the target T1, Orco (Drosophila melanogaster, UniProt Q9VNB5).
T1 construct: remnant residues; expressed in transfected cells; host or cells: Pv11 cells (Polypedilum vanderplanki), knock-in at the Pv.00443 locus downstream of the 121 promoter, single-cell sorting
T1 sequence (Q9VNB5 1-486): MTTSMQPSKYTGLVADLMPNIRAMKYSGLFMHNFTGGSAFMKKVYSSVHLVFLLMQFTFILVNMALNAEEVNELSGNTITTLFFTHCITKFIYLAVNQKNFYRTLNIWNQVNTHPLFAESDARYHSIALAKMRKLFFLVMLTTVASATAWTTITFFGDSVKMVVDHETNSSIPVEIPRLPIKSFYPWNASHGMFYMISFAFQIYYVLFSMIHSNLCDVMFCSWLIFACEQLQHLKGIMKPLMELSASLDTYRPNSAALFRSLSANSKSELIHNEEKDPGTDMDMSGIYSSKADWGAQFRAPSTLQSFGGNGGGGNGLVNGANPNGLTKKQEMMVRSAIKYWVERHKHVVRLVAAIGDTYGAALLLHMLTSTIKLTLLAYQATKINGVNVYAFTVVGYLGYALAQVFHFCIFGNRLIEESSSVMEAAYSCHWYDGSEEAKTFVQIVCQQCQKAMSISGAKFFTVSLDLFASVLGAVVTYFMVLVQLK
The experiment in a line: Response of BAM-immobilized Orco stable expression cell line. The assay is classed as cell-based. The note with it: Pv11-GCaMP6f-Orco stable expression cell line immobilized with BAM. The text has this: 8.1 Pv11 cell immobilization. A cell membrane modifier (BAM: Biocompatible Anchor for cell Membrane) was used to fix the stable expression cell line obtained above. BAM consists of a hydrophilic PEG chain, an NHS group, and a hydrophobic oleyl group; by bringing BAM into contact with a collagen-coated dish, the NHS group binds to collagen, and the oleyl group interacts with the cell membrane through hydrophobic interactions, allowing cells to adhere. BAM (SUNBRIGHT OE-040CS, Yuka Sangyo Co., Ltd.) was dissolved in DMSO (Fujifilm Wako Pure Chemical Industries) to a concentration of 10 mM. The 10 mM BAM solution was adjusted to DPBS(-) (Thermo Fisher) to a final concentration of 100 μM, 100 μl was dropped onto a collagen 1-coated 48-well microplate (IWAKI) and incubated at 37° C. for 1 hour. The BAM solution was removed, washed once with DPBS(-) (Thermo Fisher) and five times with MilliQ, and allowed to stand still to evaporate water droplets. The Pv11 cell suspension was centrifuged at 700 g for 3 minutes, the supernatant was removed, the cell pellet was suspended in DPBS(-) (Thermo Fisher) and dropped onto a BAM-coated dish. […]
8.2 Functional confirmation of exogenous membrane proteins in fixed cells. […] Each substance was reacted with each cell in the same manner as in 3.2 above, and the fluorescence intensity was measured. […]

The next assay has as its target T2, Orco-Or47a (Drosophila melanogaster, UniProt P81921+Q9VNB5).
T2 sequence (Q9VNB5 1-486): T1 sequence (Q9VNB5 1-486)
T2 sequence (P81921 1-385): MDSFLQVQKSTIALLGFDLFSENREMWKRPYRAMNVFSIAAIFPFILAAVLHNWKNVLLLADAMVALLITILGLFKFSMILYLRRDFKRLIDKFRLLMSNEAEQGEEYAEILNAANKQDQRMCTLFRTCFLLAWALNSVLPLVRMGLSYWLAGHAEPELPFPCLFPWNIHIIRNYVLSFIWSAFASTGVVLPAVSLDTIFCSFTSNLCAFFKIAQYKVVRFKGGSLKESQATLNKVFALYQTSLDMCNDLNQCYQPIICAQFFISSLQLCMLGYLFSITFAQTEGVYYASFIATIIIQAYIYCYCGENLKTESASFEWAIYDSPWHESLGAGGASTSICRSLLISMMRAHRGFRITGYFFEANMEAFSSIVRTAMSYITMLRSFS
The experiment in a line: Functional confirmation of exogenous membrane proteins in Orco-Or47a stable expression cell line. The assay is classed as cell-based. Also noted: remnant residues; expressed in transfected cells. The conditions noted are these: VUAA1 final 100 μM; pentyl acetate final 1 mM; DMSO negative control. Here is the method:
3.2 The functionality of GCaMP6f. The functionality of GCaMP6f in the resulting cell lines was evaluated using Ionomycin (Ionomycin; Fujifilm Wako Pure Chemical) to increase the intracellular concentration of calcium ions to provide functional confirmation of exogenous proteins in the GCaMP6f stable-expressing cell line. Ionomycin was dissolved in dimethyl sulfoxide (DMSO; Fujifilm Wako Pure Chemical Industries, Ltd.), adjusted to a final DMSO concentration of 1% and an ionomycin final concentration of 1 μM in IP1-41 medium, and added to the cell solution. As a negative control, DMSO was adjusted to a final concentration of 1% in IP 1-41 medium and added to the cell solution. Bright-field images and fluorescence images (ex: 470/40 nm; em: 525/50 nm) of the cells before and after solution addition were taken (all-in-one fluorescence microscope BZ-X710, Keyence). […] For statistical analysis of fluorescence intensity, one-way ANOVA was performed using Prism8 (GraphPad), followed by Tukey's multiple comparison test as a post-hoc test,
3.3 Functional confirmation of exogenous membrane proteins in cell lines with stable expression of Orco-Or47a. The amount of fluorescence expression was confirmed by the same operation as in 3.2 above. […] Fluorescence images were taken at an excitation wavelength/emission wavelength of 488 nm/525 nm. […]

Turning to `CCCCCOC(C)=O` [pentyl acetate], at Orco, the “response (fluorescence intensity) of immobilized cells” value is reported as “did not respond”. Further, at Orco-Or47a, the fluorescence intensity result is “increase in fluorescence intensity was also observed”.
In the same order, the values of `CCc1ccc(NC(=O)CSc2nnc(-c3cccnc3)n2CC)cc1` [VUAA1, N-(4-ethylphenyl)-2-{[4-ethyl-5-(pyridin-3-yl)-4H-1,2,4-triazol-3-yl]sulfanyl}acetamide] are “did respond” and “increase in fluorescence intensity was observed”.

For the origin of these results see patent US20250197799A1, “CELLS DERIVED FROM POLYPEDILUM VANDERPLANKI AND ODOR SENSOR EQUIPPED THEREWITH” (University of Maryland, College Park, priority 2022, published 2025).
